From patent US20240390403A1, “COMPOSITION AND METHODS FOR TREATING AN ANEURYSM” (Nectero Medical, Inc., priority 2023, published 2024)

Tested on: porcine abdominal aortas
Assay: opening angle experiment on porcine abdominal aortic rings
Conditions: for statistical analysis of opening angles (ANOVA): Example 13, 50-fold dilution (0.05 mM; Glutaraldehyde 0.5% in PBS, pH 7.4), n=9 rings
Protocol: In this study, compounds of this disclosure were added to abdominal aortas in an opening angle experiment to determine how they would affect the aorta in vitro. Thus, to understand the ability of the compounds of this disclosure to bind to aortic elastin and determine their ability to affect the aorta and aneurysms.
Twelve porcine abdominal aortas were ordered and received. The infra-renal sections of these aortas were dissected, cleaned, rinsed, and then cut into rings measuring 3 mm in width. […] These rings were mixed up before testing to randomize them based on their location in the artery. They were then stored in 500 ml of saline. Analog solutions were prepared at the same molar concentration, but they were not normalized for gallic acid content as indicated in Table 1. These solutions of analogs were made using a solution containing about 26% iopamidol, a radioopaque contrast agent. […] All solutions were prepared one day prior to their use. […] For each solution, 6 aortic rings were placed in a pre-labeled 50 ml conical tube containing 20 ml of the solution, resulting in a volume to tissue ratio of approximately 3.3 ml of solution per ring. The tubes were then incubated at room temperature for 3 hours, with rotation every 30-40 minutes.
After the treatment, while still in the tube, the solution was decanted, and the rings were rinsed three times in PBS and then suspended in PBS. The rings were placed in a 6-well plate, with 2 rings per well and 3 ml of PBS in each well. Each ring was opened with a single cut using fine scissors and laid back in the well. The rings were allowed 15 minutes to recoil in the PBS at room temperature, with gentle shaking every 5 minutes.
Photographs of the rings were taken, and their opening angles were measured using Image J software. The data were then plotted and statistical analyses were performed for comparison.
All solutions were prepared one day prior to their use.
For this experiment, nine aortic rings were placed in 30 ml of a pre-prepared solution within a 50 ml conical tube. […] The tubes were then incubated at room temperature for 3 hours, with rotations occurring every 30-40 minutes. After the incubation period, while still in the tubes, the solution was poured off, and the rings were rinsed three times with PBS and then left suspended in PBS. The rings were then transferred to a 6-well plate, with 2 rings per well and 3-4 ml of PBS in each well. Each ring was opened with a single cut using fine scissors and laid flat in the well. They were allowed to recoil for 15 minutes in PBS at room temperature, with gentle shaking every 5 minutes. Photographs were taken, and the opening angle was measured using the Image J software.

| Molecule | statistical analysis of opening angles (ANOVA) | statistical comparison of mean opening angles among analogs (FIG. 3) (Example 12, 2.49 mM, n=6 rings) | variability of opening angles relative to control samples (Example 12, 2.49 mM, n=6 rings) | also measured |
| --- | --- | --- | --- | --- |
| O=CCCCC=O [Glutaraldehyde, reference compound] | significantly different from all controls and analogs |  |  |  |
| O=C(OC[C@H]1O[C@@H](OC(=O)c2cc(O)c(O)c(O)c2)[C@H](OC(=O)c2cc(O)c(O)c(O)c2)[C@@H]1OC(=O)c1cc(O)c(O)c(O)c1)c1cc(O)c(O)c(O)c1 [TG-ribose, polygalloyl ribose] |  | statistically significant lower opening angles |  |  |
| O=C(OC[C@@H]1O[C@@H](OC(=O)c2cc(O)c(O)c(O)c2)[C@H](OC(=O)c2cc(O)c(O)c(O)c2)[C@@H](OC(=O)c2cc(O)c(O)c(O)c2)[C@H]1OC(=O)c1cc(O)c(O)c(O)c1)c1cc(O)c(O)c(O)c1 [α-PGG, pentagalloyl α-glucose] |  | not statistically different |  |  |
| O=C(OC[C@H]1O[C@@H](OC(=O)c2cc(O)c(O)c(O)c2)[C@H](OC(=O)c2cc(O)c(O)c(O)c2)[C@@H](OC(=O)c2cc(O)c(O)c(O)c2)[C@@H]1OC(=O)c1cc(O)c(O)c(O)c1)c1cc(O)c(O)c(O)c1 [β-PGG, pentagalloyl β-glucose, reference compound] | significantly different from all controls and analogs | not statistically different |  |  |
| polygalloyl maltose [OG-maltose] |  |  | substantially reduced | opening angle compared to the PBS subgroup (statistics) (Example 12, 2.49 mM, n=6 rings): statistically significant differences, except for OG-maltose |
| polygalloyl-sucrose [OG-sucrose] |  |  | substantially reduced |  |
